Among the data in patent US6831199B1, “Pyrimidine compounds and derivatives thereof” (G. D. Searle & Co., priority 1995, dated 2004) are IC50 values, retold here.

In assay [1] the target is T1, Human vitronectin receptor (αvβ3) (Homo sapiens, UniProt P05106+P06756).
T1 construct: Human vitronectin receptor (αvβ3) was purified from human placenta; from tissue; host or cells: human placenta
The assay is described as follows: Vitronectin adhesion assay (solid phase receptor assay, competition with biotinylated vitronectin). The format is binding. The note with it: read-out: AvB3 IC50. The gist of the method: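 Purified human αvβ3 coated overnight at 4 °C in TBS with 1.0 mM Ca++, Mg++, Mn++, pH 7.4; compounds (top final 1.0×10^−4 M) competed with 1 nM biotinylated vitronectin for 2 h at room temperature. Bound ligand detected by HRP anti-biotin/OPD at A450; values normalized to no-competitor controls, four-parameter curve fit.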

Assay [2] deals with T2, Human fibrinogen receptor (αIIbβ3) (Homo sapiens, UniProt P05106+P08514).
T2 construct: Human fibrinogen receptor (αIIbβ3) was purified from outdated platelets; from tissue; host or cells: outdated human platelets
The assay is described as follows: Purified IIb/IIIa receptor assay (solid phase receptor assay, competition with biotinylated vitronectin). The format is binding. The note with it: read-out: IIb/IIIa IC50. In short, it runs like this:
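Competition format: 1 nM biotinylated vitronectin plus test compound (highest 1.0×10^−4 M), 2 h at room temperature on wells coated with platelet-derived αIIbβ3. Buffer was TBS containing 1.0 mM Ca, Mg, Mn, pH 7.4. HRP anti-biotin readout at 450 nm; normalized to maximum binding, four-parameter curve fit.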

In the next assay the test system is platelet rich plasma. Description: Human platelet rich plasma assay (ADP induced platelet aggregation). Particulars: ADP induced platelet aggregation in human platelet rich plasma, read-out: Human PRP. The format is cell-based. The protocol:
Human Platelet Rich Plasma Assays
Healthy aspirin free donors were selected from a pool of volunteers. The harvesting of platelet rich plasma and subsequent ADP induced platelet aggregation assays were performed as described in Zucker, M. B., “Platelet Aggregation Measured by the Photometric Method”, Methods in Enzymology 169(1989):117-133. Standard venipuncture techniques using a butterfly allowed the withdrawal of 45 mL of whole blood into a 60 mL syringe containing 5 mL of 3.8% trisodium citrate. Following thorough mixing in the syringe, the anti-coagulated whole blood was transferred to a 50 mL conical polyethylene tube. The blood was centrifuged at room temperature for 12 minutes at 200×g to sediment non-platelet cells. Platelet rich plasma was removed to a polyethylene tube and stored at room temperature until used. Platelet poor plasma was obtained from a second centrifugation of the remaining blood at 2000×g for 15 minutes. Platelet counts are typically 300,000 to 500,000 per microliter. Platelet rich plasma (0.45 mL) was aliquoted into siliconized cuvettes and stirred (1100 rpm) at 37° C. for 1 minute prior to adding 50 uL of pre-diluted test compound. After 1 minute of mixing, aggregation was initiated by the addition of 50 uL of 200 uM ADP. Aggregation was recorded for 3 minutes in a Payton dual channel aggregometer (Payton Scientific, Buffalo, N.Y.). The percent inhibition of maximal response (saline control) for a series of test compound dilutions was used to determine a dose response curve.

Structures are written as SMILES. Structures can show the parent of a compound that is named as a salt. Where two headings read alike, the source gives them in different places.

For the molecule `O=C(O)CC(NC(=O)CNC(=O)c1cccc(NC2=NCCCN2)c1)c1cc(Cl)cc(Cl)c1` (racemic) [Example 200, (±)3,5-dichloro-β-[[2-[[[3-[(1,4,5,6-tetrahydropyrimidin-2-yl)amino]phenyl]carbonyl]amino]acetyl]amino]benzenepropanoic acid, trifluoroacetate salt], the IC50 in assay [1] was 0.48 nM; in assay [2], 1100 nM; with platelet rich plasma (Homo sapiens, Platelet), more than 200000 nM.
With `COc1ccc(C(CC(=O)O)NC(=O)CNC(=O)c2cccc(NC(=N)N)c2)c(O)c1` (racemic) [Example 222, (±)β-[[2-[[[3-[(aminoiminomethyl)amino]phenyl]carbonyl]amino]acetyl]amino]-2-hydroxy-4-methoxybenzenepropanoic acid], the IC50 in assay [1] was 2.02 nM; in assay [2] it was 112 nM; with platelet rich plasma (Homo sapiens, Platelet), more than 200000 nM.
For `N=C(N)Nc1cccc(C(=O)NCC(=O)NC(CC(=O)O)c2cc(Cl)cc(Cl)c2O)c1` (racemic) [Example 225, (±)β-[[2-[[[3-[(aminoiminomethyl)amino]phenyl]carbonyl]amino]acetyl]amino]-3,5-dichloro-2-hydroxybenzenepropanoic acid, trifluoroacetate salt, monohydrate], the IC50 is 2.76 nM in assay [1]; 471 nM in assay [2]; more than 20000 nM in the assay on platelet rich plasma (Homo sapiens, Platelet).
`N=C(N)Nc1cccc(C(=O)NCC(=O)NC(CC(=O)O)c2cc([N+](=O)[O-])ccc2O)c1` (racemic) [Example 226, (±)β-[[2-[[[3-[(aminoiminomethyl)amino]phenyl]carbonyl]amino]acetyl]amino]-2-hydroxy-5-nitrobenzenepropanoic acid, trifluoroacetate salt]: the IC50 is 7.07 nM in assay [1]; 2910 nM in assay [2]; more than 200000 nM in the assay with platelet rich plasma (Homo sapiens, Platelet).
The like results for `N=C(N)Nc1cccc(C(=O)NCC(=O)NC(CC(=O)O)c2cc(Br)cc(Br)c2O)c1` (racemic) [Example 227, (±)β-[[2-[[[3-[(aminoiminomethyl)amino]phenyl]carbonyl]amino]acetyl]amino]-3,5-dibromo-2-hydroxybenzenepropanoic acid, trifluoroacetate salt, monohydrate] were, in that order, 14.1 nM, 2640 nM and more than 200000 nM.
Turning to `N=C(N)Nc1cccc(C(=O)NCC(=O)NC(CC(=O)O)c2cc(Br)ccc2O)c1` (racemic) [Example 228, (±)β-[[2-[[[3-[(aminoiminomethyl)amino]phenyl]carbonyl]amino]acetyl]amino]-5-bromo-2-hydroxybenzenepropanoic acid, trifluoroacetate salt, monohydrate], the IC50 in assay [1] is 3.36 nM; in assay [2], 583 nM; with platelet rich plasma (Homo sapiens, Platelet), more than 200000 nM.
On the same counts, the results for `O=C(O)CC(NC(=O)CNC(=O)c1cccc(NC2=NCCCCC2)c1)c1cc(Cl)cc(Cl)c1O` (racemic) [Example 232, (±)3,5-dichloro-2-hydroxy-β-[[2-[[[3-[(3,4,5,6-tetrahydro-2H-azepin-7-yl)amino]phenyl]carbonyl]amino]acetyl]amino]benzenepropanoic acid, trifluoroacetate salt, monohydrate] are 19.1 nM, 12100 nM and more than 200000 nM.
For `N=C(N)Nc1cccc(C(=O)NCC(=O)NC(CC(=O)O)c2cc(Cl)cc(Br)c2O)c1` (racemic) [Example 233, (±)β-[[2-[[[3-[(aminoiminomethyl)amino]phenyl]carbonyl]amino]acetyl]amino]-3-bromo-5-chloro-2-hydroxybezenepropanoic acid, trifluoroacetate salt, monohydrate], the IC50 was 3.31 nM in assay [1], 647 nM in assay [2] and more than 200000 nM in the assay with platelet rich plasma.
For `C#C[C@H](CC(=O)O)NC(=O)CNC(=O)c1cccc(NC(=N)N2CCCC2)c1` [Example 34, βS-[[2-[[[3-[[imino(1-pyrrolidinyl)methyl]amino]phenyl]carbonyl]amino]acetyl]amino]-4-pentynoic acid, trifluoroacetate salt], the IC50 is 94.3 nM in assay [1]; 269 nM in assay [2]; more than 200000 nM in the assay with platelet rich plasma (Homo sapiens, Platelet).
